Measurements as given in patent US8686113B2 (priority 2009, dated 2014).
Converted amounts (≈) assume the structure as drawn. Where two headings read alike, the source gives them in different places. Non-standard residues stand in square brackets, D forms with d. Residues, ends and D or L forms follow the SMILES beside them. *: point of attachment. Guan = N-terminal guanidation, N=C(N)*; Hyp = O=C(O)[C@@H]1C[C@@H](O)CN1; dOrn = NCCC[C@@H](N)C(=O)O; code O = not defined here; Orn = NCCC[C@H](N)C(=O)O; For = O=C*

What was measured:
E. coli BL21 A1 = type: cell-based, Escherichia coli
Experimental: (§1) The minimum inhibitory concentrations (MIC) of the antimicrobial peptides and peptide derivatives were determined in microdilution assays. These used a continuous peptide dilution in sterile flat-bottomed 96-well microtiter plates (polystyrene, Greiner Bio-One GmbH, Frickenhausen, Germany) and a total volume of 100 μL per well. The aqueous peptide or peptidomimetic solutions were diluted with 1% TSB water, to obtain a final concentration of 256 μg/mL. 50 μL of the peptide or peptidomimetic solution was pipetted into the first well of each series and stirred. From this solution, 50 μL was transferred to the second well, stirred and again 50 μL was transferred to the next well, and so on. A double dilution series is obtained, beginning at 256 μg/mL in the first well to 125 ng/mL in the twelfth well. The bacteria, e.g. E. coli BL21 A1, were cultured overnight at 37° C. in nutrient broth (NB, Carl Roth GmbH+Co. KG, Karlsruhe, Germany). 50 μL of a 5×10^6 bacteria/mL suspension in 1% TSB was added to each well of the microtiter plate and thus a final concentration of the peptides or peptidomimetics from 128 μg/mL (well 1) to 62.5 ng/mL (well 12) was established in each series. The plates were incubated at 37° C. for 20 h and then the absorption was measured at 595 nm with a TECAN microtiter plate spectrophotometer (Tecan Trading AG, Mannedorf, Switzerland). The MIC values of all peptides and peptidomimetics were determined in triplicate. Sterile water was used as negative control. The MIC value represents the lowest peptide concentration at which no bacterial growth is observed after an incubation time of 20 h at 37° C.
(§2) The MIC values of the peptides and peptide derivatives against Escherichia coli BL21 A1 and Micrococcus luteus ATCC 10240 are given in Table 7.

M. luteus 10240 = test: Growth inhibition assay (microdilution MIC); type: cell-based, Micrococcus luteus
Experimental: as §1, §2

Molecule	MIC E. coli BL21 A1 (E. coli BL21 A1; BL21, 20 h)	MIC M. luteus 10240 (M. luteus 10240; 10240, 20 h)	other results
84 (Guan-VDKPPYLPRPRPPRRIYNR-NH2) [compound 84]			MIC E. coli BL21 A1 (E. coli BL21 A1; 1% TSB, 20 h at 37° C.): 32 µg/mL
85 (Guan-VDKPPYLPRPRPPR[code O]IYN[code O]-NH2; reading uncertain; also: printed as Guan-VDKPPYLPRPRPPROIYNO-NH2) [compound 85]			MIC E. coli BL21 A1 (E. coli BL21 A1; 1% TSB, 20 h at 37° C.): 64 µg/mL
95 ({RQIKIWFQNRRMKWKKC-Ac}-GNNRPVYIPQPRPPHPRL-OH; not fully specified (bridges); printed as RQIKIWFQNRRMKWKKC-(CH2CO-GNNRPVYIPQPRPPHPRL-OH)-; also: N-terminal CH2CO attached to Cys side chain of RQIKIWFQNRRMKWKKC-OH) [compound 95]			MIC M. luteus 10240 (M. luteus 10240; 1% TSB, 20 h at 37° C.): 8 µg/mL; MIC E. coli BL21 A1 (E. coli BL21 A1; 1% TSB, 20 h at 37° C.): 8 µg/mL
CC[C@H](C)[C@H](NC(=O)[C@H](CCCN)NC(=O)[C@H](CCCNC(=N)N)NC(=O)[C@@H]1CCCN1C(=O)[C@@H]1CCCN1C(=O)[C@H](CCCNC(=N)N)NC(=O)[C@@H]1CCCN1C(=O)[C@H](CCCNC(=N)N)NC(=O)[C@@H]1CCCN1C(=O)[C@H](CC(C)C)NC(=O)[C@H](Cc1ccc(O)cc1)NC(=O)[C@@H]1CCCN1C(=O)[C@@H]1CCCN1C(=O)[C@H](CCCCN)NC(=O)[C@H](CC(=O)O)NC(=O)[C@@H](N)C(C)C)C(=O)N[C@@H](Cc1ccc(O)cc1)C(=O)N[C@@H](CCC(N)=O)C(=O)N[C@@H](CCCN)C(N)=O [SEQ ID NO. 74, VDKPPYLPRPRPPROIYQO-NH2] (H-VDKPPYLPRPRPPR[Orn]IYQ[Orn]-NH2)	4 µg/mL (≈ 1.72 µM)		
CC[C@H](C)[C@H](NC(=O)[C@H](CCCNC(=N)N)NC(=O)[C@H](CCCNC(=N)N)NC(=O)[C@@H]1CCCN1C(=O)[C@@H]1CCCN1C(=O)[C@H](CCCNC(=N)N)NC(=O)[C@@H]1CCCN1C(=O)[C@H](CCCNC(=N)N)NC(=O)[C@@H]1CCCN1C(=O)[C@H](CC(C)C)NC(=O)[C@H](Cc1ccc(O)cc1)NC(=O)[C@@H]1CCCN1C(=O)[C@@H]1CCCN1C(=O)[C@H](CCCCN)NC(=O)[C@H](CC(=O)O)NC(=O)[C@@H](NC=O)C(C)C)C(=O)N[C@@H](Cc1ccc(O)cc1)C(=O)N[C@@H](CC(N)=O)C(=O)N[C@@H](CCCNC(=N)N)C(=O)O [SEQ ID NO. 81] (For-VDKPPYLPRPRPPRRIYNR-OH)	128 µg/mL (≈ 52.9 µM)	32 µg/mL (≈ 13.2 µM)	
CC[C@@H](C)[C@@H](NC(=O)[C@@H](CCCNC(=N)N)NC(=O)[C@@H](CCCNC(=N)N)NC(=O)[C@H]1CCCN1C(=O)[C@H]1CCCN1C(=O)[C@@H](CCCNC(=N)N)NC(=O)[C@H]1CCCN1C(=O)[C@@H](CCCNC(=N)N)NC(=O)[C@H]1CCCN1C(=O)[C@@H](CC(C)C)NC(=O)[C@@H](Cc1ccc(O)cc1)NC(=O)[C@H]1CCCN1C(=O)[C@H]1CCCN1C(=O)[C@@H](CCCCN)NC(=O)[C@@H](CC(=O)O)NC(=O)[C@H](N)C(C)C)C(=O)N[C@H](Cc1ccc(O)cc1)C(=O)N[C@H](CC(N)=O)C(=O)N[C@H](CCCNC(=N)N)C(N)=O [SEQ ID NO. 115, vdkppylprprpprriynr-NH2] (H-[dV][dD][dK][dP][dP][dY][dL][dP][dR][dP][dR][dP][dP][dR][dR][dI][dY][dN][dR]-NH2)		64 µg/mL (≈ 26.8 µM)	
CC[C@@H](C)[C@@H](NC(=O)[C@@H](CCCN)NC(=O)[C@@H](CCCNC(=N)N)NC(=O)[C@H]1CCCN1C(=O)[C@H]1CCCN1C(=O)[C@@H](CCCNC(=N)N)NC(=O)[C@H]1CCCN1C(=O)[C@@H](CCCNC(=N)N)NC(=O)[C@H]1CCCN1C(=O)[C@@H](CC(C)C)NC(=O)[C@@H](Cc1ccc(O)cc1)NC(=O)[C@H]1CCCN1C(=O)[C@H]1CCCN1C(=O)[C@@H](CCCCN)NC(=O)[C@@H](CC(=O)O)NC(=O)[C@H](N)C(C)C)C(=O)N[C@H](Cc1ccc(O)cc1)C(=O)N[C@H](CC(N)=O)C(=O)N[C@H](CCCN)C(N)=O [SEQ ID NO. 116, vdkppylprprpproiyno-NH2] (H-[dV][dD][dK][dP][dP][dY][dL][dP][dR][dP][dR][dP][dP][dR][dOrn][dI][dY][dN][dOrn]-NH2)		128 µg/mL (≈ 55.5 µM)	
CC[C@@H](C)[C@@H](NC(=O)[C@@H](Cc1ccc(O)cc1)NC(=O)[C@@H](CC(N)=O)NC(=O)[C@H](N)CCCNC(=N)N)C(=O)N[C@H](CCCNC(=N)N)C(=O)N[C@H](CCCNC(=N)N)C(=O)N1CCC[C@@H]1C(=O)N1CCC[C@@H]1C(=O)N[C@H](CCCNC(=N)N)C(=O)N1CCC[C@@H]1C(=O)N[C@H](CCCNC(=N)N)C(=O)N1CCC[C@@H]1C(=O)N[C@H](CC(C)C)C(=O)N[C@H](Cc1ccc(O)cc1)C(=O)N1CCC[C@@H]1C(=O)N1CCC[C@@H]1C(=O)N[C@H](CCCCN)C(=O)N[C@H](CC(=O)O)C(=O)N[C@@H](C(N)=O)C(C)C [SEQ ID NO. 117, rnyirrpprprplyppkdv-NH2] (H-[dR][dN][dY][dI][dR][dR][dP][dP][dR][dP][dR][dP][dL][dY][dP][dP][dK][dD][dV]-NH2)	64 to 256 µg/mL		
CC[C@@H](C)[C@@H](NC(=O)[C@@H](Cc1ccc(O)cc1)NC(=O)[C@@H](CC(N)=O)NC(=O)[C@H](N)CCCN)C(=O)N[C@H](CCCN)C(=O)N[C@H](CCCNC(=N)N)C(=O)N1CCC[C@@H]1C(=O)N1CCC[C@@H]1C(=O)N[C@H](CCCNC(=N)N)C(=O)N1CCC[C@@H]1C(=O)N[C@H](CCCNC(=N)N)C(=O)N1CCC[C@@H]1C(=O)N[C@H](CC(C)C)C(=O)N[C@H](Cc1ccc(O)cc1)C(=O)N1CCC[C@@H]1C(=O)N1CCC[C@@H]1C(=O)N[C@H](CCCCN)C(=O)N[C@H](CC(=O)O)C(=O)N[C@@H](C(N)=O)C(C)C [SEQ ID NO. 118, onyiorpprprplyppkdv-NH2] (H-[dOrn][dN][dY][dI][dOrn][dR][dP][dP][dR][dP][dR][dP][dL][dY][dP][dP][dK][dD][dV]-NH2)	64 to 256 µg/mL		
CC[C@H](C)[C@H](NC(=O)[C@H](CCCNC(=N)N)NC(=O)[C@H](CCCNC(=N)N)NC(=O)[C@@H]1CCCN1C(=O)[C@@H]1CCCN1C(=O)[C@@H]1C[C@@H](O)CN1C(=O)[C@@H]1CCCN1C(=O)[C@H](CCCNC(=N)N)NC(=O)[C@@H]1CCCN1C(=O)[C@H](CC(C)C)NC(=O)[C@H](Cc1ccc(O)cc1)NC(=O)[C@@H]1CCCN1C(=O)[C@@H]1CCCN1C(=O)[C@H](CCCCN)NC(=O)[C@H](CC(=O)O)NC(=O)[C@@H](N)C(C)C)C(=O)N[C@@H](Cc1ccc(O)cc1)C(=O)N[C@@H](CC(N)=O)C(=O)N[C@@H](CCCNC(=N)N)C(=O)O [compound 3] (H-VDKPPYLPRP[Hyp]PPRRIYNR-OH)	128 µg/mL (≈ 54.5 µM)	32 µg/mL (≈ 13.6 µM)	
H-GNNRPVYIPQPRPPHPRL-OH [SEQ ID NO. 87, reference compound]			MIC M. luteus 10240 (M. luteus 10240; 1% TSB, 20 h at 37° C.): 64 µg/mL
H-VDKPPYLPRPPPPRRIYN-NH2 [compound 1]	128 µg/mL		
H-VDKPPYLPRPRPPRRIYN-OH [compound 28]		128 µg/mL	
H-VDKPPYLPRPRPPRRIYNH-NH2 [SEQ ID NO. 53]	16 µg/mL		times lower activity / higher MIC value than oncocin against E. coli (E. coli BL21 A1): 4 times

More lines, main results first:

MIC E. coli BL21 A1 (E. coli BL21 A1; BL21, 20 h)	MIC M. luteus 10240 (M. luteus 10240; 10240, 20 h)	Molecule	other results
8 µg/mL (≈ 3.25 µM)	8 µg/mL (≈ 3.25 µM)	CC[C@H](C)[C@H](NC(=O)[C@H](CCCNC(=N)N)NC(=O)[C@H](CCCNC(=N)N)NC(=O)[C@@H]1CCCN1C(=O)[C@@H]1CCCN1C(=O)[C@H](CCCNC(=N)N)NC(=O)[C@@H]1CCCN1C(=O)[C@H](CCCNC(=N)N)NC(=O)[C@@H]1CCCN1C(=O)[C@H](CC(C)C)NC(=O)[C@H](Cc1ccc(O)cc1)NC(=O)[C@@H]1CCCN1C(=O)[C@@H]1CCCN1C(=O)[C@H](CCCCN)NC(=O)[C@H](CC(=O)O)NC(=O)[C@@H](N)C(C)C)C(=O)N[C@@H](Cc1ccc(O)cc1)C(=O)N[C@@H](CC(N)=O)C(=O)N[C@@H](CCCN)C(=O)N[C@@H](CC(N)=O)C(N)=O [compound 26] (H-VDKPPYLPRPRPPRRIYN[Orn]N-NH2)	
	8 µg/mL (≈ 3.45 µM)	CC[C@H](C)[C@H](NC(=O)[C@H](CCCN)NC(=O)[C@H](CCCNC(=N)N)NC(=O)[C@@H]1CCCN1C(=O)[C@@H]1CCCN1C(=O)[C@H](CCCNC(=N)N)NC(=O)[C@@H]1CCCN1C(=O)[C@H](CCCNC(=N)N)NC(=O)[C@@H]1CCCN1C(=O)[C@H](CC(C)C)NC(=O)[C@H](Cc1ccc(O)cc1)NC(=O)[C@@H]1CCCN1C(=O)[C@@H]1CCCN1C(=O)[C@H](CCCCN)NC(=O)[C@H](CC(=O)O)NC(=O)[C@@H](N)C(C)C)C(=O)N[C@@H](Cc1ccc(O)cc1)C(=O)N[C@@H](CCC(N)=O)C(=O)N[C@@H](CCCN)C(N)=O [compound 74] (H-VDKPPYLPRPRPPR[Orn]IYQ[Orn]-NH2)	
4 µg/mL (≈ 1.67 µM)		CC[C@H](C)[C@H](NC(=O)[C@@H](CCCNC(=N)N)NC(=O)[C@H](CCCNC(=N)N)NC(=O)[C@@H]1CCCN1C(=O)[C@@H]1CCCN1C(=O)[C@H](CCCNC(=N)N)NC(=O)[C@@H]1CCCN1C(=O)[C@H](CCCNC(=N)N)NC(=O)[C@@H]1CCCN1C(=O)[C@H](CC(C)C)NC(=O)[C@H](Cc1ccc(O)cc1)NC(=O)[C@@H]1CCCN1C(=O)[C@@H]1CCCN1C(=O)[C@H](CCCCN)NC(=O)[C@H](CC(=O)O)NC(=O)[C@@H](N)C(C)C)C(=O)N[C@@H](Cc1ccc(O)cc1)C(=O)N[C@@H](CC(N)=O)C(=O)N[C@H](CCCNC(=N)N)C(N)=O [compound 112] (H-VDKPPYLPRPRPPR[dR]IYN[dR]-NH2)	
	16 µg/mL	H-VDKPPYLPRPRPPRRIYNH-NH2 [compound 53]	
